Assay results published in the METLIN SMRT retention time set (Domingo-Almenara et al. 2019).

Assay: gradient 5% acetonitrile 3 min, to 50% in 2 min, to 85% in 15 min, held 3 min, 100 µL/min
Conditions: column: Zorbax Extend-C18 2.1 x 50 mm; eluents: water / acetonitrile, 0.1% formic acid
Procedure, shortened: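 Retention times come from adduct peaks that were picked computationally and then checked by hand. The standards, pure and pooled in mixtures of ~100 molecules, were run on a Zorbax Extend-C18 column (2.1 × 50 mm, 1.8 μm) at 100 μL/min with water and acetonitrile, each with 0.1% formic acid. Detection was by quadrupole time-of-flight mass spectrometry in positive and negative ionization mode, with a dead volume of 40 μL and a dwell volume of 900 μL.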

## CC1CCN(c2nc(-c3ccc([N+](=O)[O-])cc3)nc3ccccc23)CC1
  RP-LC retention time: 1030 s

## COCCNC(=O)c1cc(-c2ccncc2)cn1Cc1ccc(C)cc1
  RP-LC retention time: 640 s

## O=C(c1ccc2c(c1)OCO2)N(c1ccc(Br)cc1)C1C=CS(=O)(=O)C1 (centres undefined)
  RP-LC retention time: 779 s

## COc1ccc(CCNC(=O)Cn2nc3c(Oc4ccccc4)nccn3c2=O)cc1OC
  RP-LC retention time: 700 s

## CCCCOc1ccc(-c2cc3c4nnc(CCC(=O)NCc5ccc(F)cc5)n4ccn3n2)cc1
  RP-LC retention time: 952 s

## O=C(Nc1cccc(Br)c1)N1C[C@H]2C[C@H](C1)[C@H]1CCCC(=O)N1C2
  RP-LC retention time: 708 s

## Cc1oc(-c2ccc(C(=O)NCCN3CCCC3)cc2)nc1COc1ccccc1
  RP-LC retention time: 698 s

## Cn1c(N2CCCC(C(=O)NCCC3=CCCCC3)C2)cc(=O)n(C)c1=O (centres undefined)
  RP-LC retention time: 754 s

## CCN(CC)c1cc(CNC(=O)Nc2cc(OC)ccc2OC)ccn1
  RP-LC retention time: 632 s

## Cc1ccccc1NC(=O)N1CCC(CCN)CC1
  RP-LC retention time: 580 s

## Cc1nc(-c2cn(C)c3ncccc23)sc1C(=O)NCc1ccccc1C(F)(F)F
  RP-LC retention time: 998 s

## COc1ccc(CNC(=O)c2cn3ccccc3n2)cc1OC
  RP-LC retention time: 605 s

## CC(C)(C)c1ccc(C(=O)Nc2nc(-c3ccc(F)cc3)cs2)cc1
  RP-LC retention time: 1310 s

## O=C(Nc1cccc(N2CC(C(=O)Nc3ccc(C(F)(F)F)cc3)CC2=O)c1)C1CCC1 (centres undefined)
  RP-LC retention time: 880 s

## O=C(Cc1ccc(Br)cc1)NCC(=O)N1CCCc2ccccc21
  RP-LC retention time: 876 s

## CCN1CCN(C(=O)C2CCN(S(=O)(=O)c3c(C)nn(-c4ccc(F)cc4)c3C)CC2)CC1
  RP-LC retention time: 641 s

## Cc1c(Cl)cccc1-n1ccn2cc(-c3ccc(F)cc3)nc2c1=O
  RP-LC retention time: 896 s

## CC(C)CCNC(=O)C1CCN(S(C)(=O)=O)c2cc(Cl)ccc2O1 (centres undefined)
  RP-LC retention time: 923 s

## Cc1ccc(C(O)CN2CCN(c3ccccn3)CC2)c(C)c1 (centres undefined)
  RP-LC retention time: 573 s

## CN1CC2(CCCC2)N(C(=O)COc2ccc(Cl)cc2)CC1=O
  RP-LC retention time: 799 s

## COC1CCC12CCN(Cc1cccc(F)c1)CC2 (centres undefined)
  RP-LC retention time: 637 s

## CC1(C(=O)NCc2ccc(F)cc2)CCCN(C(=O)NCc2ccccc2)C1 (centres undefined)
  RP-LC retention time: 829 s

## Cc1nn(C)c2c(=O)n(CC(=O)NCc3ccc(Br)cc3)ccc12
  RP-LC retention time: 745 s

## COc1ccccc1-c1nc2nccc(-c3ccccc3)n2n1
  RP-LC retention time: 862 s

## CC(=O)O[C@H]1Cc2ccccc2N(C(N)=O)c2ccccc21
  RP-LC retention time: 782 s

## O=C(Cn1c(=O)c2cccn2c2ccc(F)cc21)N1CCC(N2CCCCC2)CC1
  RP-LC retention time: 606 s

## O=C(c1ccccc1)N1C[C@H]2CNC(=O)[C@]23CCCC[C@@H]13
  RP-LC retention time: 662 s

## O=C(Nc1ccc2c(c1)OCCO2)Nc1ccc2nc3n(c(=O)c2c1)CCC3
  RP-LC retention time: 654 s

## CCn1c(=O)c2c(nc3n2CC(C)CN3C2CCCCC2)n(C)c1=O (centres undefined)
  RP-LC retention time: 828 s

## CCCn1cnc2cc(CNC(=O)C3CC(=O)N(c4cccc(Cl)c4)C3)ccc21 (centres undefined)
  RP-LC retention time: 659 s

## Cc1cnc(C(=O)NC2C[C@H]3CC[C@@H](C2)N3C(=O)Cc2c(C)noc2C)cn1 (some centres undefined)
  RP-LC retention time: 611 s

## COc1cc(NC(=O)N2CCCC(Cn3cnc4cccnc43)C2)cc(OC)c1OC (centres undefined)
  RP-LC retention time: 627 s

## Cc1cccc(CN2CCCn3nc(C(=O)NCCc4ccco4)cc3C2=O)c1
  RP-LC retention time: 870 s

## CCOc1cccc(C2CC(c3ccc(OC)c(OC)c3)=NC3(CCN(C(C)C)CC3)N2)c1O (centres undefined)
  RP-LC retention time: 604 s

## Cc1nn2c(CNS(=O)(=O)c3ccc(Cl)cc3C)c(-c3ccccc3)nc2s1
  RP-LC retention time: 973 s

## COc1ccc(OCc2noc(CNC(=O)CSc3nc4ccccc4o3)n2)cc1
  RP-LC retention time: 806 s

## CCN(CC)CCCC(C)NC(=O)c1ccc2c(c1)C(=O)c1ccccc1C2=O (centres undefined)
  RP-LC retention time: 671 s

## Cc1sc2ccn(CC(C)C)c(=O)c2c1C(=O)NCCN1CCCCCC1
  RP-LC retention time: 684 s

## CC(C)Cn1cc(CCNC(=O)Nc2ccc(C(F)(F)F)cc2)c2cccnc21
  RP-LC retention time: 970 s

## CCc1ccccc1NC(=O)N1CCC(n2cnc3ccccc3c2=O)CC1
  RP-LC retention time: 744 s

## N#Cc1cnn2ccn(C3OC(CO)C(O)C3O)c12 (centres undefined)
  RP-LC retention time: 614 s

## CCOC(=O)CSc1nc2ccccc2[nH]1
  RP-LC retention time: 596 s

## COc1ccc(Cl)cc1C(=O)NC1CCN(c2cc(-c3cccs3)[nH]n2)C1 (centres undefined)
  RP-LC retention time: 802 s

## O=C(Cn1c(=O)oc2ccccc21)N1CCCc2ccccc21
  RP-LC retention time: 866 s

## CCC(C)NC(=O)c1cn(-c2ccc(-c3nc(C(C)C)no3)cn2)cn1 (centres undefined)
  RP-LC retention time: 899 s

## CCc1ccc(NC(=O)N2CCC(n3cnc4ccc(C)cc4c3=O)CC2)cc1
  RP-LC retention time: 838 s

## Cc1ccc(-n2c(=O)n(CC(=O)NCCCN(C)C)c3cccnc32)cc1
  RP-LC retention time: 593 s

## Cc1cc(C(=O)Nc2ccc3c(c2)CCC(=O)N3)no1
  RP-LC retention time: 637 s

## O=C(c1cnn2c(-c3ccc4c(c3)OCO4)ccnc12)N1CCN(c2ccc(F)cc2)CC1
  RP-LC retention time: 890 s

## Cc1ccc(-c2nc(C)cc(OCC(=O)Nc3c(C)cc(C)cc3C)n2)cc1
  RP-LC retention time: 1130 s

## CC(=O)N1CCCc2cc(S(=O)(=O)CCC(=O)Nc3ccc(C)c(C)c3)ccc21
  RP-LC retention time: 784 s

## COc1ccc(-c2noc(CCCC(=O)Nc3nc(-c4ccccc4)cs3)n2)cc1
  RP-LC retention time: 1060 s

## O=S(=O)(Nc1ccc2c(c1)OCO2)c1ccc2ccccc2c1
  RP-LC retention time: 953 s

## CCOC(=O)C1CCN(c2ncc(C(=O)Nc3ccccc3)c(N)n2)CC1
  RP-LC retention time: 705 s

## O=C(Cn1c(=O)oc2ccc(C(=O)N3CCCCC3)cc21)N1CCc2ccccc2C1
  RP-LC retention time: 804 s

## CCc1ccc(C(C)NS(=O)(=O)c2c(C)c(-c3nnc(C4CCC4)o3)n(C)c2C)cc1 (centres undefined)
  RP-LC retention time: 1060 s

## COc1cc(C(=O)N2CCC3(CC2)NC(=O)c2cc(F)ccc2N3C)cc(OC)c1OC
  RP-LC retention time: 655 s

## Cn1c(C2CCN(C(=O)c3cccc(Cl)c3)C2)nc2cccnc21 (centres undefined)
  RP-LC retention time: 688 s

## COc1cc(CN2CC(F)(F)C[C@H]2c2nnc(C3CC3)o2)ccc1F
  RP-LC retention time: 931 s

## CCn1ccc(NC(=O)Nc2cccc(C)c2)n1
  RP-LC retention time: 738 s

## Cc1cnc(C2CCC2)n1CC1CCN(S(=O)(=O)c2ccccc2)CC1
  RP-LC retention time: 686 s

## CCn1cc(-c2nc(C(=O)NCc3ccc(F)cc3F)cs2)c2cccnc21
  RP-LC retention time: 992 s

## CCOC(=O)C1=C(CN2CCCC(C(=O)OCC)C2)NC(=O)NC1c1ccc(C)cc1 (centres undefined)
  RP-LC retention time: 674 s

## O=C(Nc1nnc(C2CC(=O)N(c3ccccc3)C2)o1)c1ccc(Br)cc1 (centres undefined)
  RP-LC retention time: 766 s

## CCN(CC)S(=O)(=O)c1ccc2c(c1)CC(C(=O)NC1CCCCCCC1)N2C(C)=O (centres undefined)
  RP-LC retention time: 959 s

## CCN(CC)CCNC(=O)Cn1ncc2c3ccccc3n(Cc3ccccc3)c2c1=O
  RP-LC retention time: 605 s

## Cc1nnc([C@@H]2CC(F)(F)CN2C(=O)Cc2c[nH]c3ccccc23)o1
  RP-LC retention time: 723 s

## CN(C)CCn1c2c(c(SCC(=O)Nc3ccccc3Cl)nc1=O)CCC2
  RP-LC retention time: 624 s

## COc1ccc(-c2ncc3c(n2)CCN(C(=O)Nc2ccccc2Cl)C3)cc1
  RP-LC retention time: 948 s

## COCCC(=O)N1CCC(Oc2nccnc2N2CCOCC2)C1 (centres undefined)
  RP-LC retention time: 613 s

## COc1cccc(-c2noc(Cn3ccnc3C)n2)c1
  RP-LC retention time: 624 s

## O=C(Cn1cnc2c(-c3ccc(F)cc3)csc2c1=O)Nc1ccc(Br)cc1F
  RP-LC retention time: 1030 s

## O=C(N1CCC(Cc2ccc(COCc3ccncc3)cc2)CC1)C1(c2ccccc2)CC1
  RP-LC retention time: 795 s

## O=C(c1cccc(-n2cnnn2)c1)N1CCN(Cc2nc(-c3ccc(F)cc3)cs2)CC1
  RP-LC retention time: 666 s

## O=C(CN1C(=O)NC2(CCCCC2)C1=O)NCc1ccccc1Cl
  RP-LC retention time: 746 s

## COc1ccc(-c2noc(-c3nnn4c3COC(c3ccc(C)cc3C)C4)n2)cc1OC (centres undefined)
  RP-LC retention time: 1190 s

## CC(C)CC(=O)Nc1ccc(N2CCN(CC(=O)N3CCCC3)CC2)cc1C(=O)O
  RP-LC retention time: 614 s

## O=S(=O)(c1cc(-c2nnc(-c3ccccc3)o2)ccc1F)N1CCOCC1
  RP-LC retention time: 888 s

## COc1ccc(NC(=O)Cn2nc3cc(-c4ccccc4)nc(C)n3c2=O)cc1F
  RP-LC retention time: 914 s

## Cc1ccc(N(C)C(=O)C2CCCN(S(=O)(=O)c3cc(-c4noc(C)n4)cs3)C2)cc1 (centres undefined)
  RP-LC retention time: 992 s

## CCc1ccc(CNC(=O)Cn2ccc3ccc(N4CCOCC4)nc32)cc1
  RP-LC retention time: 969 s

## O=C(c1cc(F)cc(F)c1)N1CCCC(c2ccnc(-c3cccc(F)c3)n2)C1 (centres undefined)
  RP-LC retention time: 1120 s

## Cc1ccccc1-c1noc(N2CCC(C(=O)N3CCOCC3)CC2)n1
  RP-LC retention time: 796 s

## O=C(C1CCCN(c2ncnc3c2nc2n3CCCCC2)C1)N1CCN(Cc2ccccc2)CC1 (centres undefined)
  RP-LC retention time: 615 s

## O=S(=O)(c1cccn2c(SCc3ccccc3)nnc12)N1CCN(c2ccc(F)cc2)CC1
  RP-LC retention time: 958 s

## CCC(C)NS(=O)(=O)c1cc(-c2nc(C)cs2)n(C)c1C (centres undefined)
  RP-LC retention time: 905 s

## NS(=O)(=O)c1ccc(CCNC(=O)c2nc(CCS(=O)(=O)c3ccccc3)no2)cc1
  RP-LC retention time: 692 s

## COc1ccc2c(c1OC)C(=O)N1N=C(c3ccc(-c4ccccc4)cc3)CC21 (centres undefined)
  RP-LC retention time: 927 s

## Cc1ccc(C)c(Nc2c(-c3ccc(Cl)cc3)nc3ncccn23)c1
  RP-LC retention time: 954 s
